This test addresses human recombinant H-PGDS (Homo sapiens, UniProt O60760). As to the kind of experiment: Fluorescence intensity h-PGDS TBA enzyme assay. The note with it: Examples up to 622 (and 3a, 3b). In kind it is biochemical.

The text below walks through data of patent US7902373B2 (Pfizer Inc, priority 2006, dated 2011).

Broadly, the IC50 is the midpoint of a concentration-inhibition curve.

Each structure is given as a SMILES string.

Chain of human recombinant H-PGDS (O60760 whole entry): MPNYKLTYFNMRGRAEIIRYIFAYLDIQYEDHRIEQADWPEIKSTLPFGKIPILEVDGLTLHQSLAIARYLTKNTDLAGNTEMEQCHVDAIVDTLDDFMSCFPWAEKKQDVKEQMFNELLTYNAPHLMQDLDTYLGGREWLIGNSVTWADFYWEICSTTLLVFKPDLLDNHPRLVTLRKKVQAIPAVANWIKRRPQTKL

Consider `CC(C)N1CCC(NC(=O)c2ccc(-c3cccc(F)c3)nc2)CC1` [Example 30, 6-(3-Fluorophenyl)-N-(1-isopropylpiperidin-4-yl)nicotinamide], for which the 50% inhibitory concentration (IC50) is 3.79 nM.
Then `CCCC(=O)N1CCC(NC(=O)c2ccc(-c3cccc(F)c3)nc2)CC1` [Example 31, N-(1-Butyrylpiperidin-4-yl)-6-(3-fluorophenyl)nicotinamide], with 19.9 nM.
Then `CCOC(=O)N1CCC(NC(=O)c2ccc(-c3cccc(F)c3)nc2)CC1` [Example 32, Ethyl 4-({[6-(3-fluorophenyl)pyridin-3-yl]carbonyl}amino)piperidine-1-carboxylate], with 0.387 nM; and `CCOC(=O)N1CCC(NC(=O)c2ccc(-c3cc(F)cc(F)c3)nc2)CC1` [Example 33, Ethyl 4-({[6-(3,5-difluorophenyl)pyridin-3-yl]carbonyl}amino)piperidine-1-carboxylate], with 2.41 nM; and `O=C(NC1CCN(CC(F)(F)F)CC1)c1ccc(-c2cc(F)cc(F)c2)nc1` [Example 34, 6-(3,5-Difluorophenyl)-N-[1-(2,2,2-trifluoroethyl)piperidin-4-yl]nicotinamide], with 1.85 nM.
As for `COc1cnc(-c2ccccn2)nc1N1CCC(NC(=O)c2ccc(-c3cccc(F)c3)nc2)CC1` [Example 35, 6-(3-Fluorophenyl)-N-(1-(5-methoxy-2-(pyridin-2-yl)pyrimidin-4-yl)piperidin-4-yl)nicotinamide], the concentration for half-maximal inhibition (IC50) turned out to be 2.95 nM.
To `O=C(NC1CCNCC1)c1ccc(-c2cccc(F)c2)nc1` [Example 36, 6-(3-Fluorophenyl)-N-(piperidin-4-yl)nicotinamide] belongs 7.11 nM; to `O=C(NC1CCN(c2cc(Nc3cc[nH]n3)ncn2)CC1)c1ccc(-c2cccc(F)c2)nc1` [Example 37, N-(1-(6-(1H-Pyrazol-3-ylamino)pyrimidin-4-yl)piperidin-4-yl)-6-(3-fluorophenyl)nicotinamide], 0.478 nM; to `O=C(NC1CCN(c2ncnc3ccc(Cl)cc23)CC1)c1ccc(-c2cccc(F)c2)nc1` [Example 38, N-(1-(6-Chloroquinazolin-4-yl)piperidin-4-yl)-6-(3-fluorophenyl)nicotinamide], 1.04 nM.
As to `O=C(NC1CCN(c2nnnn2-c2ccccc2)CC1)c1ccc(-c2cccc(F)c2)nc1` [Example 39, 6-(3-Fluorophenyl)-N-(1-(1-phenyl-1H-tetrazol-5-yl)piperidin-4-yl)nicotinamide], the 50% inhibitory concentration (IC50) came to 0.924 nM.
Then `Cc1ccc(C#N)c(N2CCC(NC(=O)c3ccc(-c4cccc(F)c4)nc3)CC2)n1` [Example 41, N-[1-(3-Cyano-6-methylpyridin-2-yl)piperidin-4-yl]-6-(3-fluorophenyl)nicotinamide], with 0.893 nM; and `O=C(NC1CCN(c2nccnc2-c2ccccc2)CC1)c1ccc(-c2cccc(F)c2)nc1` [Example 42, 6-(3-Fluorophenyl)-N-[1-(3-phenylpyrazin-2-yl)piperidin-4-yl]nicotinamide], with 8.58 nM; and `O=C(NC1CCN(c2nc3ccccc3nc2NCCO)CC1)c1ccc(-c2cccc(F)c2)nc1` [Example 43, 6-(3-Fluorophenyl)-N-(1-{3-[(2-hydroxyethyl)amino]quinoxalin-2-yl}piperidin-4-yl)nicotinamide], with 2.18 nM.
To `COc1ccc(-c2cnc(C)nc2N2CCC(NC(=O)c3ccc(-c4cccc(F)c4)nc3)CC2)cc1OC` [Example 44, N-{1-[5-(3,4-Dimethoxyphenyl)-2-methylpyrimidin-4-yl]piperidin-4-yl}-6-(3-fluorophenyl)nicotinamide] belongs 1.36 nM; to `Cc1cc(N2CCC(NC(=O)c3ccc(-c4cccc(F)c4)nc3)CC2)nc(N)n1` [Example 45, N-[1-(2-Amino-6-methylpyrimidin-4-yl)piperidin-4-yl]-6-(3-fluorophenyl)nicotinamide], 0.773 nM; to `Cc1nc(C(F)(F)F)nc(N2CCC(NC(=O)c3ccc(-c4cccc(F)c4)nc3)CC2)c1C` [Example 46, N-{1-[5,6-Dimethyl-2-(trifluoromethyl)pyrimidin-4-yl]piperidin-4-yl}-6-(3-fluorophenyl)nicotinamide], 1.73 nM.
To `Cc1cc(C2CCCN2c2ccnc(N3CCC(NC(=O)c4ccc(-c5cccc(F)c5)nc4)CC3)n2)no1` (centres unmarked) [Example 47, 6-(3-Fluorophenyl)-N-(1-{4-[2-(5-methylisoxazol-3-yl)pyrrolidin-1-yl]pyrimidin-2-yl}piperidin-4-yl)nicotinamide] belongs 2.92 nM.
Turning to `Cc1nc(-c2ccccn2)nc(N2CCC(NC(=O)c3ccc(-c4cccc(F)c4)nc3)CC2)c1Cl` [Example 48, N-[1-(5-Chloro-6-methyl-2-pyridin-2-ylpyrimidin-4-yl)piperidin-4-yl]-6-(3-fluorophenyl)nicotinamide], the concentration for half-maximal inhibition (IC50) stood at 2.9 nM.
For `COc1cc(N2CCC(NC(=O)c3ccc(-c4cccc(F)c4)nc3)CC2)ncn1` [Example 49, 6-(3-Fluorophenyl)-N-[1-(6-methoxypyrimidin-4-yl)piperidin-4-yl]nicotinamide], the IC50 was 0.619 nM.
Then `O=C(NC1CCN(c2ccc(C(=O)N3CCOCC3)cn2)CC1)c1ccc(-c2cccc(F)c2)nc1` [Example 50, 6-(3-Fluorophenyl)-N-{1-[5-(morpholin-4-ylcarbonyl)pyridin-2-yl]piperidin-4-yl}nicotinamide], with 0.681 nM; and `Cn1nnnc1N1CCC(NC(=O)c2ccc(-c3cccc(F)c3)nc2)CC1` [Example 51, 6-(3-Fluoro-phenyl)-N-[1-(1-methyl-1H-tetrazol-5-yl)-piperidin-4-yl]-nicotinamide], with 0.266 nM.
To `COc1ccc2c(N3CCC(NC(=O)c4ccc(-c5cccc(F)c5)nc4)CC3)ncnc2c1` [Example 52, 6-(3-Fluorophenyl)-N-[1-(7-methoxyquinazolin-4-yl)piperidin-4-yl]nicotinamide] belongs 0.332 nM; to `O=C(NC1CCN(c2cc(OCc3ccccn3)ncn2)CC1)c1ccc(-c2cccc(F)c2)nc1` [Example 53, 6-(3-Fluorophenyl)-N-{1-[6-(pyridin-2-ylmethoxy)pyrimidin-4-yl]piperidin-4-yl}nicotinamide], 1.03 nM; to `Cn1ccnc1COc1cc(N2CCC(NC(=O)c3ccc(-c4cccc(F)c4)nc3)CC2)ncn1` [Example 54, 6-(3-Fluorophenyl)-N-(1-{6-[(1-methyl-1H-imidazol-2-yl)methoxy]pyrimidin-4-yl}piperidin-4-yl)nicotinamide], 1.31 nM.
Then `COc1ccc(-c2cc(N3CCC(NC(=O)c4ccc(-c5cccc(F)c5)nc4)CC3)ncn2)cc1OC` [Example 55, N-{1-[6-(3,4-Dimethoxyphenyl)pyrimidin-4-yl]piperidin-4-yl}-6-(3-fluorophenyl)nicotinamide], with 1.67 nM.
As for `Cn1nccc1-c1nc(N2CCC(NC(=O)c3ccc(-c4cccc(F)c4)nc3)CC2)nc2ccccc12` [Example 56, 6-(3-Fluorophenyl)-N-{1-[4-(1-methyl-1H-pyrazol-5-yl)quinazolin-2-yl]piperidin-4-yl}nicotinamide], the half-maximal inhibitory concentration (IC50) came out at 12.8 nM.
Then `CCn1cnc2c(N3CCC(NC(=O)c4ccc(-c5cccc(F)c5)nc4)CC3)ncnc21` [Example 57, N-[1-(9-Ethyl-9H-purin-6-yl)piperidin-4-yl]-6-(3-fluorophenyl)nicotinamide], with 0.285 nM.
To `O=C(NC1CCN(c2ccnc(N3CCc4ccccc4C3)n2)CC1)c1ccc(-c2cccc(F)c2)nc1` [Example 58, N-{1-[2-(3,4-Dihydroisoquinolin-2(1H)-yl)pyrimidin-4-yl]piperidin-4-yl}-6-(3-fluorophenyl)nicotinamide] belongs 8.25 nM; to `O=C(NC1CCN(c2nccc(NCc3ccccn3)n2)CC1)c1ccc(-c2cccc(F)c2)nc1` [Example 59, 6-(3-Fluorophenyl)-N-(1-{4-[(pyridin-2-ylmethyl)amino]pyrimidin-2-yl}piperidin-4-yl)nicotinamide], 0.822 nM.
Then `O=C(NC1CCN(c2cnccn2)CC1)c1ccc(-c2cccc(F)c2)nc1` [Example 60, 6-(3-Fluorophenyl)-N-(1-pyrazin-2-ylpiperidin-4-yl)nicotinamide], with 0.593 nM.
In the case of `O=C(NC1CCN(c2nncc3ccccc23)CC1)c1ccc(-c2cccc(F)c2)nc1` [Example 61, 6-(3-Fluorophenyl)-N-(1-phthalazin-1-ylpiperidin-4-yl)nicotinamide], the IC50 was 0.365 nM.
To `Cn1ccnc1-c1nc(N2CCC(NC(=O)c3ccc(-c4cccc(F)c4)nc3)CC2)nc2ccccc12` [Example 62, 6-(3-Fluorophenyl)-N-{1-[4-(1-methyl-1H-imidazol-2-yl)quinazolin-2-yl]piperidin-4-yl}nicotinamide] belongs 3.33 nM; to `O=C(NC1CCN(c2ncnc3ncccc23)CC1)c1ccc(-c2cccc(F)c2)nc1` [Example 63, 6-(3-Fluorophenyl)-N-(1-pyrido[2,3-d]pyrimidin-4-ylpiperidin-4-yl)nicotinamide], 0.183 nM.
For `NC(=O)c1cccnc1N1CCC(NC(=O)c2ccc(-c3cccc(F)c3)nc2)CC1` [Example 64, N-{1-[3-(Aminocarbonyl)pyridin-2-yl]piperidin-4-yl}-6-(3-fluorophenyl)nicotinamide], the concentration for half-maximal inhibition (IC50) was determined as 0.246 nM.
As to `O=C(NC1CCN(c2ncccc2Cl)CC1)c1ccc(-c2cccc(F)c2)nc1` [Example 65, N-[1-(3-Ahloropyridin-2-yl)piperidin-4-yl]-6-(3-fluorophenyl)nicotinamide], the IC50 stood at 0.354 nM.
In the case of `CCOC(=O)c1cccnc1N1CCC(NC(=O)c2ccc(-c3cccc(F)c3)nc2)CC1` [Example 66, Ethyl 2-[4-({[6-(3-fluorophenyl)pyridin-3-yl]carbonyl}amino)piperidin-1-yl]nicotinate], the IC50 was 0.627 nM.
To `COc1ccnc(N2CCC(NC(=O)c3ccc(-c4cccc(F)c4)nc3)CC2)c1C#N` [Example 67, N-[1-(3-Cyano-4-methoxypyridin-2-yl)piperidin-4-yl]-6-(3-fluorophenyl)nicotinamide] belongs 0.955 nM.
Regarding `NC(=O)c1ccc(N2CCC(NC(=O)c3ccc(-c4cccc(F)c4)nc3)CC2)nc1` [Example 68, N-{1-[5-(Aminocarbonyl)pyridin-2-yl]piperidin-4-yl}-6-(3-fluorophenyl)nicotinamide], the IC50 turned out to be 0.361 nM.
